Test results: US20220162610A1, “NOVEL RNA TRANSCRIPT” (PTC Therapeutics, Inc., priority 2020, published 2022)

Experiments:
HTT protein = HTT protein electrochemiluminescence (ECL) assay in HD patient fibroblasts, 96 h; assay type: cell-based, human; settings: for HTT protein level: fibroblasts derived from HD patients, 96 h
Protocol: Human fibroblasts derived from a homozygous patient with HD (GM4857) were cultured for 96 hours in the presence of test compounds (in 0.5% DMSO) or controls at 37° C. in a humidified 5% CO2 atmosphere. After 96 hours, cells were lysed and frozen. HTT protein levels were measured in lysates as described below. Compounds that decreased HTT protein levels relative to DMSO control were further tested in a dose response assay.
For analysis in the electrochemiluminescence (ECL) assays, test compounds were serially diluted 3-fold in 100% DMSO (Sigma) to generate a 7-point concentration curve. A solution of test compound (500 nL, 200× in DMSO) was added to each test well with Acoustic Transfer System (EDC Biosystems); final concentration of DMSO was 0.5%. Fibroblasts were seeded in 96-well flat-bottomed plates (Thermo Fisher) at 4×10^3 cells/well in 100 μl of culture medium containing the test compound or DMSO vehicle control and incubated for 96 hours (37° C., 5% CO2, 100% relative humidity). After removal of the supernatant, cells were lysed in 50 μL of 1×LB11 extraction buffer (50 mM Tris (pH 7.4), 300 mM NaCl, 10% [w/v] glycerol, 3 mM EDTA, 1 mM MgCl2, 20 mM glycerophosphate, 25 mM NaF, 1% Triton X-100), containing a Complete™ protease inhibitor cocktail (Roche Diagnostics) with shaking at 4° C. for 30 minutes; the plates were then stored at −20° C.
Meso Scale Discovery® 96-well plates (MSD®) were coated overnight at 4° C. with primary antibodies in phosphate-buffered saline (PBS; 30 μl/well). The plates were washed three times with 0.05% Tween-20 in 1×PBS (PBS-T; 200 μl/well) then blocked (100 μl/well; 5% bovine serum albumin [BSA] in PBS-T) for 5-6 hours at room temperature (RT) with shaking. Plates were then washed three times with PBS-T. Cell lysates were transferred to the antibody coated plates (25 μl/well) and incubated with shaking overnight at 4° C. After removal of the lysates, the plates were washed three times with PBS-T, and 25 μl of detection antibody in 1% BSA, PBS-T was added to each well and incubated with shaking for 1 hour at room temperature. After three washes with PBS-T, 25 μl of Sulfo-Tag secondary antibody (MSD®; 0.25 μg/ml in 1% BSA, PBS-T) was added to each well and incubated with shaking for 1 hour at RT. After washing three times with PBS-T, 150 μl of read buffer T with surfactant (MSD®) was added to each empty well and the plate was imaged on the SI 6000 imager (MSD®) according to manufacturers' instructions for 96-well plates. Primary capture antibodies included: anti-polyglutamine-expanded HTT mouse monoclonal antibody (mAb) clone MW1 (1 μg/mL; Developmental Studies Hybridoma Bank); anti-HTT MAB2166 mAb (1 μg/mL; Millipore); anti-human KRAS rabbit polyclonal antibody (1 μg/mL; Thermo Fisher Scientific). Detection antibodies included: Huntingtin (D7F7) XP® Rabbit mAb (0.25 μg/ml; Cell Signalling Technology®); anti-hKRAS mouse mAb (0.25 μg/ml; LSBIO).

human HTT protein = assay: Pharmacodynamic study in BACHD mice, HTT protein in tissues; assay type: in vivo
Protocol: Test mice were euthanised and brain, muscle (quadriceps), and blood samples were harvested 2 hours after the last dose on Day 20. Prior to analysis, crude total protein from brain and muscle tissue samples was prepared by sample lysis in MSD® assay buffer 1 (MSD®) with Complete™ Protease Inhibitor Cocktail added (Roche Diagnostics). Tissues were then homogenised using TissueLyser II (Qiagen) plus a 5 mm stainless steel bead. The lysate was clarified by centrifugation at 16,000×g for 20 minutes at 4° C. and the total protein concentration quantified with the Pierce™ BCA Protein Assay Kit (Thermo Scientific) according to the manufacturer's instructions. Whole blood was collected by cardiac puncture into EDTA collection tubes. An aliquot (100-200 μL) was added to 1.5 mL of eBioscience™ 1× Red Blood Cell Lysis Buffer (Thermo Fisher) and mixed well for 5 minutes before collecting the white blood cells (WBC) by centrifugation at 400×g. The supernatant was discarded, and the pellet of WBCs was frozen in liquid nitrogen and stored at −70° C. Brain and muscle sample lysates were analysed for hHTT and KRAS protein expression using the ECL protein assay (described previously); using the same method WBC samples were also analysed for hHTT expression but not KRAS.
Each tissue sample was tested in duplicate using the ECL protein assay and the average hHTT and KRAS readouts were calculated. The ratio of the mean hHTT signal to the mean KRAS signal (×1000) was determined for each test animal. The hHTT/KRAS ratio grand mean for the vehicle group of five test animals was calculated and the fold change relative to the vehicle grand mean was determined for each test animal in each group. Percent hHTT (% hHTT) lowering normalised to KRAS was determined for each test animal by subtracting the fold change from one and multiplying the difference by 100. Each experiment was performed twice yielding ten % hHTT lowering values for each treatment group. For each treatment group, the mean % hHTT lowering plus the standard error of the mean (SEM) was plotted as a bar graph. The % hHTT lowering in white blood cell samples was determined without KRAS using the grand hHTT vehicle mean instead of the grand hHTT/KRAS ratio vehicle mean.
BACHD: Pharmacodynamic (PD) evaluations were performed in BACHD mice aged 6-10 weeks. Compound or vehicle (HPMC/0.1% Tween 80) was administered to BACHD mice (5 female mice per group) once daily for 21 doses (QD×21) by oral gavage; dosing volumes were 10 mL/kg. Each animal was regularly observed for mortality or signs of pain, distress, or overt toxicity and findings were recorded. Body weights were recorded at the start and at least once a week during the course of the study. As described previously, tissue samples were obtained and prepared for ECL protein assay analysis from each animal as described previously.

SMILES: CC1(C)CC(Oc2ccc(-c3ccc(-c4ccnc(O)c4)cc3O)nn2)CC(C)(C)N1 [HTT-C1]
- HTT protein level (HTT protein): dose-dependent decrease
- wild type and mutant HTT protein expression (HTT protein; fibroblasts, 96-hour treatment): lowered HTT protein expression from both alleles

SMILES: CC1(C)CC(Oc2ccc(-c3ccc(-c4cn[nH]c4)cc3O)nn2)CC(C)(C)N1 [HTT-C2]
- time for protein expression to return to control levels after treatment cessation (human HTT protein; 10 mg/kg, brain): ≤ 10 days
- time at which maximal reductions in HTT levels were achieved (human HTT protein; 10 mg/kg, brain, time course 4-63 days): ≤ 21 days
- lowering of HTT protein throughout the whole brain (human HTT protein; 10 mg/kg, incl. striatum and cortex): > 50%
- HTT reduction in blood cells, muscle, heart, liver and kidney (human HTT protein; at doses required to achieve 50% HTT lowering in the brain): > 90%
- HTT levels within brain tissue (human HTT protein; daily oral administration, 3 or 10 mg/kg): dose-dependent reduction of HTT levels within brain tissue
- HTT protein within peripheral tissues (human HTT protein; oral administration): dose dependently lowered HTT protein within peripheral tissues

SMILES: CCN1CCC(c2cc(C)c3nc(-c4ccc5nn(C)cc5c4)cc(=O)n3c2)CC1 [HTT-D1]
- HTT protein level (HTT protein): dose-dependent decrease

SMILES: CCN1CCC(c2cc3c(F)cc(-c4cc(C)c5nc(C)cn5n4)cc3nn2)CC1 [HTT-D3]
- HTT protein within the brain and peripheral tissues (human HTT protein; BACHD mice): dose dependent and more equitable lowering of HTT protein
